Laboratory results as given in patent US5532400A, “2,6-di-alkyl-4-silyl-phenols as antiatheroscelerotic agents” (Merrell Pharmaceuticals Inc., priority 1994, dated 1996).
pIC50: −log10 of the molar value.

Tested on: human LDL
Assay: Inhibition of LDL lipid peroxidation (cupric sulfate-induced, thiobarbituric acid assay)
Type: biochemical
Conditions: 250 μg human LDL, test compound 30 min at 42° C., cupric sulfate 12.5 μM, 37° C., 2.5 hours, read-out: ID50 (concentration of test compound required to inhibit 50% of LDL lipid peroxidation)
Protocol: The degree of inhibition of LDL lipid peroxidation was determined by the method of Yagi et al. [Vitamins 39, 105 (1968)].
A 0.5 mL solution containing 250 micrograms (μg) of human LDL was incubated with the test compound, in amounts varying from 0 to 30 μg, for 30 minutes at 42° C. To this mixture was added 1 mL of a cupric sulfate solution (final concentration 12.5 μM) and the mixture was incubated at 37° C. for 2.5 hours. The amount of peroxidation of LDL lipid was determined by the thiobarbituric acid assay. The concentration of test compound required to inhibit 50% of LDL lipid peroxidation (ID50) was determined.

Row | SMILES | pIC50
1 | CC(C)(C)c1cc(SC[Si](C)(C)C)cc(C(C)(C)C)c1O [Compound A] | 5.55
2 | CC(C)(C)c1cc(SC[Si](C)(C)c2ccccc2)cc(C(C)(C)C)c1O [Compound B] | 5.52
